In patent publication US12295919B2, “Methods of treatment and prevention using 4-deoxy-L-erythro-5-hexoseulose uronic acid” (MIE UNIVERSITY, priority 2022, dated 2025):

How the values were obtained:
[1] = system: blood-brain barrier in vitro reconstitution system model (MBT-24H); assay: BBB permeability using cynomolgus monkey-type BBB kit (MBT-24H); assay type: in vitro ADME
Protocol: The permeability of DEH was evaluated using a commercially available BBB kit (blood-brain barrier in vitro reconstitution system model (MBT-24H: PharmaCo-Cell Company, Ltd.)). The kit uses cynomolgus monkey-derived cells as endothelial cells. The permeability of DEH was evaluated using this model.
The reconstituted cynomolgus monkey BBB model has a structure closer to that of human BBB as compared to that of the kit in <Test 2>, so it was considered to be a better model for evaluating whether DEH permeates the human BBB.
After the test, the DEH concentration on the brain parenchyma side was obtained, and the DEH permeability was calculated.

DAF-16 = assay: Expression and activation (nuclear localization) of DAF-16; assay type: in vivo, C. elegans; conditions: 72 hours at 20° C.; for nuclear localization rate of DAF-16: TJ356 strain (Control 2.2%); for intermediate localization rate of DAF-16: TJ356 strain (Control 24.4%)
Excerpt: The FOXO gene daf-16 is one of the components of the insulin/IGF-1 signaling pathway that controls many biological processes such as lifespan, metabolism, and stress response. When DAF-16 is localized in the nucleus, it activates the transcription of numerous genes involved in the regulation of stress tolerance promotion and pathogen protection. Therefore, the involvement of DEH in the activation of daf-16 was examined using the C. elegans TJ356 strain.
The TJ356 strain (zls356 [daf-16p::daf-16a/b::GFP+rol-6 (su1006)]) is a nematode, in which a fluorescent protein GFP has been inserted into the daf-16 promoter, and nuclear translocation by daf-16 gene activation can be observed by fluorescence of the GFP.
Age-synchronized TJ356 strain was cultured using mNGM medium at 20° C. for 72 hours. As evaluation groups (samples), positive control (group heat-treated at 37° C. for 30 minutes after 72-hour culture), control (DEH−), 25 mM DEH and 50 mM DEH were used. E. coli OP50-1 was used as nematode food.
After culturing the TJ356 strain, 15 nematodes in each group were observed under a microscope to confirm the presence or absence of nuclear localization of the DAF-16 protein (GFP fluorescence) (n=60).
Each data is shown as mean±standard error. […] Thus, DEH increased the nuclear localization ratio of DAF-16 as compared to the Control.

Caco-2 cell monolayer = assay: Membrane permeability using Caco-2 cell monolayer; assay type: in vitro ADME, human
Protocol: When Caco-2 cells (human colon cancer-derived cell line) are cultured in a monolayer on a porous membrane filter, they differentiate into intestinal epithelium-like cells. Owing to the differentiation, they express brush borders and tight junctions similar to columnar epithelial cells of the small intestine, as well as metabolic enzymes and transporters present in the human small intestine. Therefore, the Caco-2 cell monolayer is widely used as a model to predict absorption from the intestinal tract.
Using the Caco-2 cell monolayer, the membrane permeability of DEH was confirmed.
Next, using the model apparatuses shown in FIGS. 2A-2B, the electrical resistance value (transepithelial electrical resistance (TEER) value) using an electrical resistance system (voltohmmeter) sold under the trademark MILLICELL™ ESR-2 (FIG. 2A) and permeability using Lucifer Yellow (FIG. 2B) were measured to confirm that a single layer film was formed. The single layer films, in which the TEER value was more than 300 Ω·cm2 and the permeability of Lucifer yellow was 0.3% to 2%, were used in the test.
Permeability (absorption) of substances, which were added to the apical (AP: apical, luminal) side, to the basolateral (BL) side, or permeability (excretion) of substances, which were added to the BL side, to the AP side was evaluated.
An ER value of less than 2 means absorption from the intestinal tract, and an ER value of 2 or more means excretion from the intestinal tract.

[2] = system: blood-brain barrier in vitro reconstitution system model (RBT-24H); assay: BBB permeability using rat-type BBB kit (RBT-24H); assay type: in vitro ADME, Wistar rat
Protocol: Next, DEH permeability was evaluated using a commercially available BBB kit (blood-brain barrier in vitro reconstitution system model (RBT-24H: PharmaCo-Cell Company Ltd.)). This kit uses endothelial cells, pericytes and astrocytes of Wistar rat origin. The above-mentioned SIM measurement of LC/MS was used in the detection and quantification of DEH. A 1000 μg/mL DEH solution was added to the blood vessel side, and after 30 minutes, culture medium on the brain parenchyma side was collected. Then, the DEH concentration in the collected culture medium was measured.
A summary of data, which examined permeability subgroups that migrate into the brain for various compounds, are shown in Table 3.

C. elegans strain HA759 = assay: Inhibitory effect on neuronal death in PolyQ disease model; assay type: in vivo; conditions: 120 hours after start of culturing
Excerpt: The effect of DEH on neuronal death of the C. elegans strain HA759, which is a PolyQ disease model, was also investigated. HA759 strain (rtIs11 [osm-10p:: GFP+osm−10p: HtnQ150+dpy−20 (+)]) is a C. elegans strain which expresses Htn-Q150 (human huntingtin) and the fluorescent protein GFP downstream of the osm-10 gene when it receives a signal from ASH neurons. In accordance with the duration of the culture time, HA759 causes death of ASH neurons due to progressive neurodegeneration owing to accumulation of PolyQ.
Age-synchronized HA759 strain was cultured using mNGM medium. Control (DEH−), 25 mM DEH and 50 mM DEH were used as evaluation groups (samples). E. coli OP50-1 was used as nematode food.
Ten nematodes each were observed under a microscope immediately after the start of culture of the HA759 strain and after 24, 48, 72, and 120 hours to confirm whether nerve cells were alive or dead (n=30).
Each data is shown as mean±standard error. […] Thus, DEH inhibited, in a dose-dependent manner, PolyQ-induced neuronal death in the HA759 strain. Because DEH suppresses (reduces) PolyQ aggregation and neuronal cell death, DEH can treat and/or prevent symptoms of PolyQ disease, such as involuntary movement and dementia.

PC-12 cells = assay: Neurite outgrowth activity using PC-12 cells; assay type: cell-based, rat
Protocol: Next, the characteristics of DEH were investigated using PC-12 cells. PC-12 cells are cells that were isolated from rat adrenal medullary pheochromocytoma and established as a strain. Nerve growth factor (NGF) is not needed for survival of PC-12 cells, but proliferation is arrested, nerve fibers elongate, and sympathetic ganglion neuron-like properties develop by using NGF. Owing to these properties, PC-12 cells have been used as a model for neural differentiation.
PC-12 cells were cultured and divided into 8 subgroups: no addition (Control), DEH addition (10, 50, 100 μM), NGF addition, NGF addition+DEH addition (10, 50, 100 μM), and elongation of neurite formation was observed. ImageJ software was used to measure neurite length. FIGS. 5A-5C show photographs of cells observed under a microscope; in FIG. 6 the neurite length (μm) of each subgroup is shown. Each data is shown as mean±standard error of triplicate tests. Statistical analysis was performed using the t-test, and a significance level of less than 5% (p<0.05) was considered significant.
NGF addition+DEH addition (50, 60, 70, 80, 90, 100 μM) was divided into 6 subgroups, and the elongation and number of neurites were observed and are shown in FIGS. 7 and 8. Each data is shown as mean±standard error of triplicate tests.

[3] = system: human iPS cell-derived intestinal epithelial cells; assay: Membrane permeability using human iPS cell-derived intestinal epithelial monolayer; assay type: in vitro ADME
Protocol: The permeability of DEH through membrane was confirmed using human iPS cells. […] Therefore, results closer to the human body can be obtained using iPS cell-derived intestinal epithelial cells as compared to those using the Caco-2 cell model test.
Using a CO2 incubator (37° C., 5% CO2), human iPS cell-derived intestinal epithelial cells were cultured for 13 to 20 days to prepare a monolayer.
The membrane permeability of the human iPS cell-derived intestinal epithelial monolayer membrane was evaluated by the method described above in <Test 1> using an electrical resistance system (voltohmmeter) sold under the trademark MILLICELL™ ESR-2. Monolayer films, in which the TEER value was more […], were used in the test.
Permeability (absorption) of substances, which were added to the AP side, to the BL side, or permeability (excretion) of substances, which were added to the BL side, to the AP side was evaluated. The above-mentioned SIM measurement of LC/MS was used in the detection and quantification of DEH.

[4] = cynomolgus monkey BBB kit, mean ± s.e.
[5] = human iPS cell-derived intestinal epithelial monolayer, mean ± s.e.

**Q.** How did the “Efflux ratio (ER) (B-A/A-B)” value ([1]; cynomolgus monkey BBB kit) turn out when `O=C[C@@H](O)[C@@H](O)CC(=O)C(=O)O` [DEH, 4-deoxy-L-erythro-5-hexoseulose uronic acid] was run?
**A.** Its value is 0.766.

**Q.** What about the “Papp Blood side (A) to Brain side (B)” value [1, 4] of the same compound?
**A.** The value was 2.88 ± 0.24 ×10^−6 cm/s.

**Q.** What about the “Papp Brain side (B) to Blood side (A)” value [1, 4] of the same compound?
**A.** The value was 2.20 ± 0.55 ×10^−6 cm/s.

**Q.** What about the Permeability category ([1]; monkey BBB kit, Papp compared with Table 3) of the same compound?
**A.** Its Permeability category is “low (2~10)”.

**Q.** And the “nuclear localization rate of DAF-16” value (DAF-16; 25 mM DEH)?
**A.** The value was 40.0%.

**Q.** What about the “intermediate localization rate of DAF-16” value (DAF-16; 25 mM DEH) of the same compound?
**A.** Its value is 35.6%.

**Q.** And the “nuclear localization rate of DAF-16” value (DAF-16; 50 mM DEH)?
**A.** Its value is 51.1%.

**Q.** And the “intermediate localization rate of DAF-16” value (DAF-16; 50 mM DEH)?
**A.** The value was 31.1%.

**Q.** And the Absorption category (Caco-2 cell monolayer; Caco-2 Papp compared with Table 2)?
**A.** The Absorption category was “moderate”.

**Q.** And the “Papp AP to BL” value (Caco-2 cell monolayer; Caco-2 monolayer, absorption direction, mean ± s.e.)?
**A.** Its value is 5.13 ± 0.22 ×10^−6 cm/s.

**Q.** And the “Papp BL to AP” value (Caco-2 cell monolayer; Caco-2 monolayer, excretion direction, mean ± s.e.)?
**A.** The value was 2.78 ± 0.12 ×10^−6 cm/s.

**Q.** What about the “ER (B→A/A→B)” value (Caco-2 cell monolayer; Caco-2 monolayer, ER less than 2 means absorption from the intestinal tract) of the same compound?
**A.** The value was 0.542.

**Q.** What about the “Papp (DEH permeability, blood vessel side to brain parenchyma side)” value ([2]; 1000 μg/mL DEH, 30 minutes) of the same compound?
**A.** Its value is 14.62±6.86 ×10^−6 cm/s.

**Q.** And the Permeability category ([2]; Papp compared with Table 3)?
**A.** Its Permeability category is “good (10~20)”.

**Q.** What about the “neuronal death suppressed (decreased) as compared to the Control” value (C. elegans strain HA759; 25 mM DEH) of the same compound?
**A.** The value was 20.3%.

**Q.** And the “neuronal death suppressed (decreased) as compared to the Control” value (C. elegans strain HA759; 50 mM DEH)?
**A.** Its value is 46.4%.

**Q.** What about the “neurite outgrowth, DEH alone” value (PC-12 cells; DEH 10, 50, 100 μM without NGF) of the same compound?
**A.** The value was “did not induce neurite outgrowth”.

**Q.** What about the “optimum concentration (maximum neurite elongation and number)” value (PC-12 cells; NGF + DEH 50-100 μM) of the same compound?
**A.** The value was 70 µM.

**Q.** What about the “promotion of the function of NGF (neurite length)” value (PC-12 cells; NGF addition + DEH addition, p<0.05 vs NGF) of the same compound?
**A.** Its value is “significantly (p<0.05) promote the function of NGF”.

**Q.** What about the “Efflux ratio (ER) (B-A/A-B)” value ([3]; human iPS cell-derived intestinal epithelial monolayer) of the same compound?
**A.** Its value is 0.907.

**Q.** And the “Papp AP to BL” value [3, 5]?
**A.** The value was 8.78 ± 1.49 ×10^−6 cm/s.

**Q.** And the “Papp BL to AP” value [3, 5]?
**A.** The value was 7.97 ± 1.26 ×10^−6 cm/s.

**Q.** And the Absorption category ([3]; iPS-derived monolayer Papp compared with Table 2)?
**A.** Its Absorption category is “moderate”.
